Key:
CD46 expression [1] = experiment: CD46 expression by RNA-sequencing in paired tumor biopsies before and after therapy; conditions: for CD46 expression diff (post minus pre) / Percent Change in CD46 expression / CD46 expression, Post-Treatment Biopsy: paired biopsies; for CD46 expression, Post-Treatment Biopsy: RNA-seq log2-transformed counts;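 as to all read-outs here: FFPE human tumor biopsies, exome-capture RNA-seq, reads aligned to GRCh37, counts normalized for GC content, length and depth, summed per gene, log2-transformed, samples paired before versus after therapy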
CD46 expression [2] = experiment: CD46 expression by RNA-sequencing in unpaired pre-treatment and post-treatment tumor biopsies; assay type: in vivo, human; conditions: for CD46 expression Post: post-treatment biopsies
[3] = Breast Cancer, Post minus Pre, unpaired biopsies, log2-transformed counts
[4] = Breast Cancer, post- vs pre-treatment unpaired biopsies
[5] = Breast Cancer, unpaired, RNA-seq log2-transformed normalized counts

Structure (SMILES): COc1cccc2c1C(=O)c1c(O)c3c(c(O)c1C2=O)C[C@@](O)(C(=O)CO)C[C@@H]3O[C@H]1C[C@H](N)[C@H](O)[C@H](C)O1 [doxorubicin]
- CD46 expression diff (post minus pre) (CD46 expression [1]; Breast Cancer): 0.12
- Percent Change in CD46 expression (CD46 expression [1]; Breast Cancer): 1.9%
- CD46 expression, Post-Treatment Biopsy (CD46 expression [1]; Breast Cancer): 6.27
- CD46 expression diff (post minus pre) (CD46 expression [1]; Sarcoma): 0.20
- Percent Change in CD46 expression (CD46 expression [1]; Sarcoma): 4.1%
- CD46 expression, Post-Treatment Biopsy (CD46 expression [1]; Sarcoma): 5.19
- CD46 expression diff (CD46 expression [2]; Bladder Cancer, post minus pre, unpaired biopsies): −0.27
- CD46 expression Percentage change (CD46 expression [2]; Bladder Cancer, post vs pre, unpaired biopsies): −4.3%
- CD46 expression Post (CD46 expression [2]; Bladder Cancer, log2-transformed RNA-seq counts): 5.88
- CD46 expression diff (CD46 expression [2]; [3]): −0.02
- CD46 expression Percentage change (CD46 expression [2]; [4]): −0.3%
- CD46 expression diff (CD46 expression [2]; Sarcoma, Post minus Pre, unpaired biopsies, log2-transformed counts): 0.07
- CD46 expression Percentage change (CD46 expression [2]; Sarcoma, post- vs pre-treatment unpaired biopsies): 1.3%
- CD46 expression Post (CD46 expression [2]; Sarcoma, unpaired, RNA-seq log2-transformed normalized counts): 5.06

Structure (SMILES): CNC(=O)c1ccc(N2C(=S)N(c3ccc(C#N)c(C(F)(F)F)c3)C(=O)C2(C)C)cc1F [enzalutamide]
- CD46 expression diff (post minus pre) (CD46 expression [1]; Prostate Cancer): 0.06
- Percent Change in CD46 expression (CD46 expression [1]; Prostate Cancer): 1.1%
- CD46 expression, Post-Treatment Biopsy (CD46 expression [1]; Prostate Cancer): 6.01
- CD46 expression diff (CD46 expression [2]; Prostate Cancer, Post minus Pre, unpaired biopsies, log2-transformed counts): 0.03
- CD46 expression Percentage change (CD46 expression [2]; Prostate Cancer, post- vs pre-treatment unpaired biopsies): 0.4%
- CD46 expression Post (CD46 expression [2]; Prostate Cancer, unpaired, RNA-seq log2-transformed normalized counts): 6.14

Structure (SMILES): C=C1C[C@@H]2CC[C@@]34C[C@H]5O[C@H]6[C@@H](O3)[C@H]3O[C@H](CC[C@@H]3O[C@H]6[C@H]5O4)CC(=O)C[C@@H]3[C@@H](OC)[C@@H](C[C@H](O)CN)O[C@H]3C[C@H]3O[C@@H](CC[C@@H]1O2)C[C@@H](C)C3=C [eribulin]
- CD46 expression diff (post minus pre) (CD46 expression [1]; Breast Cancer): −0.54
- Percent Change in CD46 expression (CD46 expression [1]; Breast Cancer): −8.4%
- CD46 expression, Post-Treatment Biopsy (CD46 expression [1]; Breast Cancer): 5.92
- CD46 expression diff (CD46 expression [2]; [3]): 0.11
- CD46 expression Percentage change (CD46 expression [2]; [4]): 1.8%
- CD46 expression Post (CD46 expression [2]; [5]): 6.20

Structure (SMILES): O=c1[nH]cc(F)c(=O)[nH]1 [fluorouracil]
- CD46 expression diff (post minus pre) (CD46 expression [1]; Colorectal Cancer): −0.05
- Percent Change in CD46 expression (CD46 expression [1]; Colorectal Cancer): −0.8%
- CD46 expression, Post-Treatment Biopsy (CD46 expression [1]; Colorectal Cancer): 6.27
- CD46 expression diff (post minus pre) (CD46 expression [1]; Esophageal Cancer): −0.31
- Percent Change in CD46 expression (CD46 expression [1]; Esophageal Cancer): −5.2%
- CD46 expression, Post-Treatment Biopsy (CD46 expression [1]; Esophageal Cancer): 5.60
- CD46 expression diff (post minus pre) (CD46 expression [1]; Gastric Cancer): −0.09
- Percent Change in CD46 expression (CD46 expression [1]; Gastric Cancer): −1.5%
- CD46 expression, Post-Treatment Biopsy (CD46 expression [1]; Gastric Cancer): 5.66
- CD46 expression diff (post minus pre) (CD46 expression [1]; Pancreatic Cancer): 0.09
- Percent Change in CD46 expression (CD46 expression [1]; Pancreatic Cancer): 1.5%
- CD46 expression, Post-Treatment Biopsy (CD46 expression [1]; Pancreatic Cancer): 5.92
- subjects whose paired biopsies showed decreased CD46 expression (CD46 expression [1]; esophageal cancer, 10 of 13 subjects, FIG. 4): 77%
- CD46 expression diff (CD46 expression [2]; Biliary Cancer, Post minus Pre, unpaired biopsies, log2-transformed counts): 0.00
- CD46 expression Percentage change (CD46 expression [2]; Biliary Cancer, post- vs pre-treatment unpaired biopsies): 0.0%
- CD46 expression Post (CD46 expression [2]; Biliary Cancer, unpaired, RNA-seq log2-transformed normalized counts): 5.92
- CD46 expression diff (CD46 expression [2]; [3]): 0.06
- CD46 expression Percentage change (CD46 expression [2]; [4]): 1.0%
- CD46 expression Post (CD46 expression [2]; [5]): 6.18
- CD46 expression diff (CD46 expression [2]; Colorectal Cancer, Post minus Pre, unpaired biopsies, log2-transformed counts): 0.06
- CD46 expression Percentage change (CD46 expression [2]; Colorectal Cancer, post- vs pre-treatment unpaired biopsies): 0.9%
- CD46 expression Post (CD46 expression [2]; Colorectal Cancer, unpaired, RNA-seq log2-transformed normalized counts): 6.44
- CD46 expression diff (CD46 expression [2]; Esophageal Cancer, Post minus Pre, unpaired biopsies, log2-transformed counts): −0.06
- CD46 expression Percentage change (CD46 expression [2]; Esophageal Cancer, post- vs pre-treatment unpaired biopsies): −1.0%
- CD46 expression Post (CD46 expression [2]; Esophageal Cancer, unpaired, RNA-seq log2-transformed normalized counts): 5.83
- CD46 expression diff (CD46 expression [2]; Gastric Cancer, post minus pre, unpaired biopsies): −0.14
- CD46 expression Percentage change (CD46 expression [2]; Gastric Cancer, post vs pre, unpaired biopsies): −2.4%
- CD46 expression Post (CD46 expression [2]; Gastric Cancer, log2-transformed RNA-seq counts): 5.65
- CD46 expression diff (CD46 expression [2]; Head and Neck Squamous Cell Carcinoma, Post minus Pre, unpaired biopsies, log2-transformed counts): 0.03
- CD46 expression Percentage change (CD46 expression [2]; Head and Neck Squamous Cell Carcinoma, post- vs pre-treatment unpaired biopsies): 0.6%
- CD46 expression Post (CD46 expression [2]; Head and Neck Squamous Cell Carcinoma, unpaired, RNA-seq log2-transformed normalized counts): 5.63
- CD46 expression diff (CD46 expression [2]; Pancreatic Cancer, post minus pre, unpaired biopsies): −0.15
- CD46 expression Percentage change (CD46 expression [2]; Pancreatic Cancer, post vs pre, unpaired biopsies): −2.5%
- CD46 expression Post (CD46 expression [2]; Pancreatic Cancer, log2-transformed RNA-seq counts): 5.76

Structure (SMILES): C[C@]12CC[C@@H]3c4ccc(O)cc4C[C@@H](CCCCCCCCC[S+]([O-])CCCC(F)(F)C(F)(F)F)[C@H]3[C@@H]1CC[C@@H]2O (stereo partly drawn) [fulvestrant]
- CD46 expression diff (post minus pre) (CD46 expression [1]; Breast Cancer): −0.13
- Percent Change in CD46 expression (CD46 expression [1]; Breast Cancer): −2.1%
- CD46 expression, Post-Treatment Biopsy (CD46 expression [1]; Breast Cancer): 6.44
- CD46 expression diff (CD46 expression [2]; [3]): −0.08
- CD46 expression Percentage change (CD46 expression [2]; [4]): −1.2%
- CD46 expression Post (CD46 expression [2]; [5]): 6.41

Reference: patent US20240058464A1 (Fortis Therapeutics, Inc., priority 2021, published 2024)
